Read-outs that look alike come from different tables or passages of the source.
Assays:
kinases (468) [1] = biological target: kinases (468) (Homo sapiens, UniProt Q9UQB9); conditions: AURKC; 1000 nM
kinases (468) [2] = biological target: kinases (468) (Homo sapiens, UniProt Q9P0L2); conditions: MARK1; 1000 nM
kinases (468) [3] = biological target: kinases (468) (Homo sapiens, UniProt P49336); conditions: CDK8; 1000 nM
kinases (468) [4] = biological target: kinases (468) (Homo sapiens, UniProt Q13546); conditions: kinase RIPK1 (Entrez RIPK1); compound concentration 1000 nM
kinases (468) [5] = biological target: kinases (468) (Homo sapiens, UniProt Q13627); conditions: DYRK1A; 1000 nM
kinases (468) [6] = biological target: kinases (468) (Homo sapiens, UniProt Q86Z02); conditions: HIPK1; 1000 nM
kinases (468) [7] = biological target: kinases (468) (Homo sapiens, UniProt Q9Y2U5); conditions: MAP3K2; 1000 nM
kinases (468) [8] = biological target: kinases (468) (Homo sapiens, UniProt P43405); conditions: kinase SYK (Entrez SYK); compound concentration 1000 nM
kinases (468) [9] = biological target: kinases (468) (Homo sapiens, UniProt P24941); conditions: CDK2; 1000 nM
kinases (468) [10] = biological target: kinases (468) (Homo sapiens, UniProt P29597); conditions: compound concentration 1000 nM
Chain of kinases (468) (Homo sapiens, UniProt P29597) (P29597 whole entry): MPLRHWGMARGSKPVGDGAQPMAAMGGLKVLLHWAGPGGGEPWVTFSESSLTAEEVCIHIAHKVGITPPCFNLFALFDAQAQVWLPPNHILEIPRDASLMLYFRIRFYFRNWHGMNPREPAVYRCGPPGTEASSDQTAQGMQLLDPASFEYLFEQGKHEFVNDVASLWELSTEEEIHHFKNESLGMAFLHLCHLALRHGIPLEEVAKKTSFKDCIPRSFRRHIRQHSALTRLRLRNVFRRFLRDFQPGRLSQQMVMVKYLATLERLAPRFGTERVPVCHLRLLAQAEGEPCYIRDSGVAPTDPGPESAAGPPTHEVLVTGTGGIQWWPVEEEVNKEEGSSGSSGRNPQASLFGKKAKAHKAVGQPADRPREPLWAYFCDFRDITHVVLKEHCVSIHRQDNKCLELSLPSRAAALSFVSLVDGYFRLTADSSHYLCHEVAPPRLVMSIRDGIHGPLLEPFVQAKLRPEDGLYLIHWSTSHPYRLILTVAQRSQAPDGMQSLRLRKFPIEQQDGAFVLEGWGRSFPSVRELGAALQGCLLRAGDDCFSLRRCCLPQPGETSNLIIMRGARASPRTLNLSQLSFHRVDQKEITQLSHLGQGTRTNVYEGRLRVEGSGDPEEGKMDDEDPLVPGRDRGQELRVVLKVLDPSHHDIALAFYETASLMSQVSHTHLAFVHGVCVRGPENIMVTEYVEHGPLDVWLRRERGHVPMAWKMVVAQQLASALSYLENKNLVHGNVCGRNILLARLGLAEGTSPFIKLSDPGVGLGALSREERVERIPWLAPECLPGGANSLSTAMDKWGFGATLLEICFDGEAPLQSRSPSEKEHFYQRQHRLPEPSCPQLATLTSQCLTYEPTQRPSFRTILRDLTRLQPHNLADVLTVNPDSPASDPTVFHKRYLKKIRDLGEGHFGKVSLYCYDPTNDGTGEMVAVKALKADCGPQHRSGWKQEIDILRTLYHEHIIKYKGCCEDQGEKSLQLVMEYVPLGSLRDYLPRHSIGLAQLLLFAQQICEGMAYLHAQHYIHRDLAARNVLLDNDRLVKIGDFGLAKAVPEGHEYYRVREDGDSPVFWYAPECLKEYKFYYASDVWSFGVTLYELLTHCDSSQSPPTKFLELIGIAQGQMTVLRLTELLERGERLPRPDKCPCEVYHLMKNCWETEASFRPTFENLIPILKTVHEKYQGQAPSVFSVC

kinases (468) [11] = biological target: kinases (468) (Homo sapiens, UniProt Q12851); conditions: MAP4K2; 1000 nM
kinases (468) [12] = biological target: kinases (468) (Homo sapiens, UniProt Q8NG66); conditions: NEK11; 1000 nM
kinases (468) [13] = biological target: kinases (468) (Homo sapiens, UniProt Q05397); conditions: FAK (PTK2); 1000 nM
Chain of kinases (468) (Homo sapiens, UniProt Q05397) (Q05397 whole entry): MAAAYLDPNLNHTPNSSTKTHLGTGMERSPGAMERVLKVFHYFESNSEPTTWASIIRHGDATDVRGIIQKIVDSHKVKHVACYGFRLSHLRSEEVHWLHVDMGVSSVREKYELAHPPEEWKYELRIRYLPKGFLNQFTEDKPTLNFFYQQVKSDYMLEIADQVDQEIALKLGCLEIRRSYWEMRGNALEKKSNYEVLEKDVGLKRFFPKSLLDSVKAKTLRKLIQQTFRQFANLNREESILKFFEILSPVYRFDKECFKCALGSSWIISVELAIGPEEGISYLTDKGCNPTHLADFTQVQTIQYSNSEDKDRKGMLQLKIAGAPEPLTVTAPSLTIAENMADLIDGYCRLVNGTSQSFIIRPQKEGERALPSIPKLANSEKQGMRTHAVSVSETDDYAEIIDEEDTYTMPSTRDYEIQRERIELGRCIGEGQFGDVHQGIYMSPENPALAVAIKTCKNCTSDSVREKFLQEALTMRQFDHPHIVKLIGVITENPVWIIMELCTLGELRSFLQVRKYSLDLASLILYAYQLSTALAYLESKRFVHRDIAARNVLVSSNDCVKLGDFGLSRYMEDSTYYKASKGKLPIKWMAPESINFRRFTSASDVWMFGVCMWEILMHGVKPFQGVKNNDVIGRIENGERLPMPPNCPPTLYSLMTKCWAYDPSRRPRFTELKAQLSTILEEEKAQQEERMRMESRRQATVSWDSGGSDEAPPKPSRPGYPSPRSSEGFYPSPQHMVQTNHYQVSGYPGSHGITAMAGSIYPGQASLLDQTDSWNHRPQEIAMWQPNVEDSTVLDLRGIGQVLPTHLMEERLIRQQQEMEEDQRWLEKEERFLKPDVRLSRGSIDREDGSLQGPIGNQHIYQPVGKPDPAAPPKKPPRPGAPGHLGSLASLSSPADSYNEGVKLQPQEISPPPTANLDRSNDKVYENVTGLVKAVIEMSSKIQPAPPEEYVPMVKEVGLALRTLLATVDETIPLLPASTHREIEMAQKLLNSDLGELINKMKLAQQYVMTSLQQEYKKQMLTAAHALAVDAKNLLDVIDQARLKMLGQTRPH

kinases (468) [14] = biological target: kinases (468) (Homo sapiens, UniProt P11309); conditions: PIM1; 1000 nM
Chain of kinases (468) (Homo sapiens, UniProt P11309) (P11309 whole entry): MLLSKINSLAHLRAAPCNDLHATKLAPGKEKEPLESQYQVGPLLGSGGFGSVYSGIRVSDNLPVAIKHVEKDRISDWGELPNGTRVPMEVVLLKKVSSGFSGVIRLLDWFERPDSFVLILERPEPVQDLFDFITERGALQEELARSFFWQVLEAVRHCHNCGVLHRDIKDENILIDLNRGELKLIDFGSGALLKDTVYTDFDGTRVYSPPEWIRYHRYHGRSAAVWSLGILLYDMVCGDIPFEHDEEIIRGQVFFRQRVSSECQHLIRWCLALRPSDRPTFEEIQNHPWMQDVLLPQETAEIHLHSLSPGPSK

kinases (468) [15] = biological target: kinases (468) (Homo sapiens, UniProt P45984); conditions: JNK2 (MAPK9); 1000 nM
kinases (468) [16] = biological target: kinases (468) (Homo sapiens, UniProt Q32MK0); conditions: MLCK (MYLK3); 1000 nM
kinases (468) [17] = biological target: kinases (468) (Homo sapiens, UniProt P30530); conditions: AXL; 1000 nM
kinases (468) [18] = biological target: kinases (468) (Homo sapiens, UniProt O43683); conditions: BUB1; 1000 nM
kinases (468) [19] = biological target: kinases (468) (Homo sapiens, UniProt Q9NRM7); conditions: LATS2; 1000 nM
kinases (468) [20] = biological target: kinases (468) (Homo sapiens, UniProt Q12852); conditions: DLK (MAP3K12); 1000 nM
kinases (468) [21] = biological target: kinases (468) (Homo sapiens, UniProt P0C264); conditions: kinase SgK110 (Entrez SgK110); compound concentration 1000 nM
kinases (468) [22] = biological target: kinases (468) (Homo sapiens, UniProt P04626); conditions: ERBB2; 1000 nM
kinases (468) [23] = biological target: kinases (468) (Homo sapiens, UniProt P51812); conditions: compound concentration 1000 nM
Chain of kinases (468) (Homo sapiens, UniProt P51812) (P51812 whole entry): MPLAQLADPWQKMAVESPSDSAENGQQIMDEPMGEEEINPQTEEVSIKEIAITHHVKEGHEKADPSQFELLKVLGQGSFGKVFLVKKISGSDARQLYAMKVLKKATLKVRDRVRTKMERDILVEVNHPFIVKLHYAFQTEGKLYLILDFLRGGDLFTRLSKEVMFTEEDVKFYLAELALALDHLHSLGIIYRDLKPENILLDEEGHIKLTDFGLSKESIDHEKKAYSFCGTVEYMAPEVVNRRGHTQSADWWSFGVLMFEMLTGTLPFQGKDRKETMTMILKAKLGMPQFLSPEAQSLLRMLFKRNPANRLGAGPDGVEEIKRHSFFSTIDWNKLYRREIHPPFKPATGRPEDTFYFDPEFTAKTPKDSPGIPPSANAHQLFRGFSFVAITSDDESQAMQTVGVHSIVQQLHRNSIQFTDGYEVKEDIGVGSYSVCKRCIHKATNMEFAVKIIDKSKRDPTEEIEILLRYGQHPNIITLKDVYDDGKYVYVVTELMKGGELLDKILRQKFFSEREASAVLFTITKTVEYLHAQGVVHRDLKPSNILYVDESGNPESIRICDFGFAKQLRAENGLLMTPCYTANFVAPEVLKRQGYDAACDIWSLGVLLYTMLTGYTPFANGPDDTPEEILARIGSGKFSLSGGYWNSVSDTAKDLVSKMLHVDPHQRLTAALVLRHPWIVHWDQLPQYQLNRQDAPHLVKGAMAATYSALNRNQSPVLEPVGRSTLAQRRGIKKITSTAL

kinases (468) [24] = biological target: kinases (468) (Homo sapiens, UniProt P45983); conditions: JNK1 (MAPK8); 1000 nM
kinases (468) [25] = biological target: kinases (468) (Homo sapiens, UniProt P19525); conditions: PRKR (EIF2AK2); 1000 nM
kinases (468) [26] = biological target: kinases (468) (Homo sapiens, UniProt Q8WTQ7); conditions: GRK7; 1000 nM
Chain of kinases (468) (Homo sapiens, UniProt Q8WTQ7) (Q8WTQ7 whole entry): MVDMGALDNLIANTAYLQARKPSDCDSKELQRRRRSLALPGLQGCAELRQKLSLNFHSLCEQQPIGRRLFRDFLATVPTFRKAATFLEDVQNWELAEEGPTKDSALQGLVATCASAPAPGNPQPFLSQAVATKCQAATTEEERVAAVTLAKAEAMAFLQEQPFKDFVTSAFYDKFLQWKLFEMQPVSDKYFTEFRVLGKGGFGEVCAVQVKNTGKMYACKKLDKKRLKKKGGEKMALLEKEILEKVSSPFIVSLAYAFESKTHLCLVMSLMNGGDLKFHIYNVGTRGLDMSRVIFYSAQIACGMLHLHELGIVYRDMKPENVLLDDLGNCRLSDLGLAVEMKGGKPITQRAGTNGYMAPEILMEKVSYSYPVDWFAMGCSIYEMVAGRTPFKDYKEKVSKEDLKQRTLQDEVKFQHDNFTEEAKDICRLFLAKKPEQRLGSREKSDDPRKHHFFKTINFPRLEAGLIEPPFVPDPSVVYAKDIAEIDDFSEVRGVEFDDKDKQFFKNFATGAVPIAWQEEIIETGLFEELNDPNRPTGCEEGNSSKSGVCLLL

kinases (468) [27] = biological target: kinases (468) (Homo sapiens, UniProt P10721, L576P); conditions: KIT(L576P); 1000 nM
kinases (468) [28] = biological target: kinases (468) (Homo sapiens, UniProt O14730); conditions: kinase RIOK3 (Entrez RIOK3); compound concentration 1000 nM
Chain of kinases (468) (Homo sapiens, UniProt O14730) (O14730 whole entry): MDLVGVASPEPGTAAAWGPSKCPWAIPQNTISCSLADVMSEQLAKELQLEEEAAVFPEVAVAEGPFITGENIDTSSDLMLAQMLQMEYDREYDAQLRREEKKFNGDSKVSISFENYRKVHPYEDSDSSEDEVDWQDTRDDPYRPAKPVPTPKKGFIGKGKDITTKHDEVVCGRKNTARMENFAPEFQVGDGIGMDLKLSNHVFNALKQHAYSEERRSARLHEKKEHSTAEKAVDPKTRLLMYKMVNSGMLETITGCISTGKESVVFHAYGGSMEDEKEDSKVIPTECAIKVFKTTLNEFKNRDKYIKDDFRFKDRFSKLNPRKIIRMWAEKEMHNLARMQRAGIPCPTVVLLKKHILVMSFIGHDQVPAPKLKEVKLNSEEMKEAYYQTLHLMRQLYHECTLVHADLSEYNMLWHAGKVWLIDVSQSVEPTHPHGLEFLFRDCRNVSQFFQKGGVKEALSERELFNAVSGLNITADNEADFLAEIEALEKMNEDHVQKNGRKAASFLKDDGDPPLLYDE

kinases (468) [29] = biological target: kinases (468) (Homo sapiens, UniProt O75914); conditions: PAK3; 1000 nM
kinases (468) [30] = biological target: kinases (468) (Homo sapiens, UniProt P07948); conditions: LYN; 1000 nM
kinases (468) [31] = biological target: kinases (468) (Homo sapiens, UniProt Q8NEB9); conditions: kinase VPS34 (Entrez PIK3C3); compound concentration 1000 nM
kinases (468) [32] = biological target: kinases (468) (Homo sapiens, UniProt Q8IVW4); conditions: CDKL3; 1000 nM
kinases (468) [33] = biological target: kinases (468) (Homo sapiens, UniProt Q2M2I8); conditions: AAK1; 1000 nM
kinases (468) [34] = biological target: kinases (468) (Homo sapiens, UniProt Q8N4C8); conditions: MINK (MINK1); 1000 nM

Chain of kinases (468) (Homo sapiens, UniProt P49336) (P49336 whole entry): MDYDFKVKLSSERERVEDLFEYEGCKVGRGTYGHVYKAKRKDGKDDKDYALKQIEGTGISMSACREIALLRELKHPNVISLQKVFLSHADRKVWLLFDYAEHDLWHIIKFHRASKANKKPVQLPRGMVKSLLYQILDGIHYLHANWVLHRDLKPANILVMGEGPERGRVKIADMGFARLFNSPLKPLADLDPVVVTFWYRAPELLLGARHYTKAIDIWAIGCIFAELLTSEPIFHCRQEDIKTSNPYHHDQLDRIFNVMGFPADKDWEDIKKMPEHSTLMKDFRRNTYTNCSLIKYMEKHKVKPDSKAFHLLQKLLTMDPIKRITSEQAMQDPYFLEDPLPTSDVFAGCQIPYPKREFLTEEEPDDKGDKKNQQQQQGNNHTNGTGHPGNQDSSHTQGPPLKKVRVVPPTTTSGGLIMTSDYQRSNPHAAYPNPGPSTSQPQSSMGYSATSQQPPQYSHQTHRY

## C[C@H]1C[C@@H](O)CN(c2ncc(Cl)c(Nc3ccc4c(c3)c3c(c(=O)n4C)OCC(F)(F)[C@H](C4CC4)N3)n2)C1 [CCT373566_9A]
Kinases (468) [1]
  Percent Control: 100%
Kinases (468) [2]
  Percent Control: 100%
Kinases (468) [3]
  Percent Control: 100%
Kinases (468) [4]
  Percent Control: 100%
Kinases (468) [5]
  Percent Control: 95%
Kinases (468) [6]
  Percent Control: 98%
Kinases (468) [7]
  Percent Control: 95%
Kinases (468) [8]
  Percent Control: 98%
Kinases (468) [9]
  Percent Control: 96%
Kinases (468) [10]; kinase TYK2(JH1domain-catalytic) (Entrez TYK2)
  Percent Control: 97%
Kinases (468) [10]; kinase TYK2(JH2domain-pseudokinase) (Entrez TYK2)
  Percent Control: 89%
Kinases (468) [11]
  Percent Control: 99%
Kinases (468) [12]
  Percent Control: 95%
Kinases (468) [13]
  Percent Control: 96%
Kinases (468) [14]
  Percent Control: 100%
Kinases (468) [15]
  Percent Control: 78%
Kinases (468) [16]
  Percent Control: 100%
Kinases (468) [17]
  Percent Control: 95%
Kinases (468) [18]
  Percent Control: 94%
Kinases (468) [19]
  Percent Control: 96%
Kinases (468) [20]
  Percent Control: 96%
Kinases (468) [21]
  Percent Control: 95%
Kinases (468) [22]
  Percent Control: 94%
Kinases (468) [23]; kinase RSK2(Kin.Dom.1-N-terminal) (Entrez RPS6KA3)
  Percent Control: 100%
Kinases (468) [23]; kinase RSK2(Kin.Dom.2-C-terminal) (Entrez RPS6KA3)
  Percent Control: 100%
Kinases (468) [24]
  Percent Control: 85%
Kinases (468) [25]
  Percent Control: 95%
Kinases (468) [26]
  Percent Control: 96%
Kinases (468) [27]
  Percent Control: 100%
Kinases (468) [28]
  Percent Control: 85%
Kinases (468) [29]
  Percent Control: 99%
Kinases (468) [30]
  Percent Control: 88%
Kinases (468) [31]
  Percent Control: 80%
Kinases (468) [32]
  Percent Control: 100%
Kinases (468) [33]
  Percent Control: 93%
Kinases (468) [34]
  Percent Control: 87%

Reference: publication PMC9234961 (Journal of Medicinal Chemistry, 2022)
